Values of other authors in publication PMC11064828 (Journal of Nuclear Medicine, 2024).

Key:
[1] = test system: CAIX; settings: phase 1 study of advanced solid tumors
Text: (§1) As a direct transcriptional target of hypoxia-inducible factor 1α, CAIX is overexpressed in several hard-to-treat tumors, including ccRCC, CRC, breast cancer, and PDAC ([2],[9]–[11]), making it a promising therapeutic target. However, to date, the transition of CAIX-targeting therapies to clinical settings has been poor ([7],[13]). Several small-molecule inhibitors of CAs, including CAIX, have been developed ([7],[13]).

[2] = test system: CAIX; settings: 2 clinical trials of metastatic ccRCC
Text: as §1, with “([7],[13]).” for “([7],[13]). Several small-molecule inhibitors of CAs, including CAIX, have been developed ([7],[13]).”

Compound	objective responses [1]	tolerability [1]	dose-limiting toxicity [2]
NS(=O)(=O)c1ccc(NC(=O)Nc2ccc(F)cc2)cc1 [SLC-0111]	no objective responses	well tolerated	
G250 to the β-emitter [^177Lu]Lu: anti-CAIX monoclonal antibody G250 conjugated to the β-emitter [^177Lu]Lu			dose-limiting myelotoxicity
